Three compounds from ChEMBL document CHEMBL3580625, “The synthesis and functional evaluation of a mitochondria-targeted hydrogen sulfide donor, (10-oxo-10-(4-(3-thioxo-3H-1,2-dithiol-5-yl)phenoxy)decyl)triphenylphosphonium bromide (AP39)” (Medchemcomm, 2014) can be followed below.

Calls of active or inactive are those of the source. No cut-off for these calls is given here.

The test system of series [1] is hCMEC/D3. Kind of series: Induction of H2S production in human CMEC/D3 cells after 1 hr by WSP-1 probe-based fluorescence assay. It counts as functional, cell-based.
For series [2], the species on record is Mus musculus. As to the kind of experiment: Induction of H2S production in mouse bEND.3 cells at 100 nM after 1 hr by AzMC fluorescent probe-based inverted microscopic analysis. The series is classed as functional, cell-based.
For series [3], the species on record is Mus musculus. As to the kind of experiment: Induction of H2S production in mitochondria of mouse bEND.3 cells at 100 nM after 1 hr by MitoTracker Red fluorescent probe-based inverted microscopic analysis. The series is classed as functional.
Series [4] can be described thus: Cytotoxicity against human CMEC/D3 cells up to 5 uM after 24 hrs by Alamar blue assay relative to vehicle-treated control. Particulars: hcmec/d3, 24 h. It counts as cell-based. For orientation: Alamar Blue is a resazurin reagent that responds to reducing activity.
Series [5] deals with hCMEC/D3. Kind of series: Cytoprotective activity in human CMEC/D3 cells assessed as inhibition of SIN-1-induced oxidative stress-mediated loss of mitochondrial membrane potential at 100 nM preincubated for 1 hr followed by SIN-1 induction measured after 24 hrs by TMRM fluorescent probe-based fluorimetric analysis. The series is classed as functional, cell-based.
The subject of series [6] is hCMEC/D3. Kind of series: Cytoprotective activity in human CMEC/D3 cells assessed as inhibition of H2O2-induced oxidative stress-mediated loss of mitochondrial membrane potential at 100 nM preincubated for 1 hr followed by H2O2 induction measured after 24 hrs by TMRM fluorescent probe-based fluorimetric analysis. It counts as functional, cell-based.
In series [7] the test system is hCMEC/D3. As to the kind of experiment: Cytoprotective activity in human CMEC/D3 cells assessed as inhibition of 4-HNE-induced oxidative stress-mediated loss of mitochondrial membrane potential at 100 nM preincubated for 1 hr followed by 4-HNE induction measured after 24 hrs by TMRM fluorescent probe-based fluorimetric analysis. The series is classed as functional, cell-based.

The subject of series [8] is hCMEC/D3. As to the kind of experiment: Cytoprotective activity in human CMEC/D3 cells assessed as inhibition of SIN-1-induced mitochondrial production of reactive oxygen species at 100 nM preincubated for 1 hr followed by SIN-1 induction measured after 24 hrs by MitoSox Red probe-based fluorescence assay. The series is classed as functional, cell-based.
Series [9] has as its system hCMEC/D3. Kind of series: Cytoprotective activity in human CMEC/D3 cells assessed as inhibition of H2O2-induced mitochondrial production of reactive oxygen species at 100 nM preincubated for 1 hr followed by H2O2 induction measured after 24 hrs by MitoSox Red probe-based fluorescence assay. It counts as functional, cell-based.
The subject of series [10] is hCMEC/D3. Kind of series: Cytoprotective activity in human CMEC/D3 cells assessed as inhibition of 4-HNE-induced mitochondrial production of reactive oxygen species at 100 nM preincubated for 1 hr followed by 4-HNE induction measured after 24 hrs by MitoSox Red probe-based fluorescence assay. The series is classed as functional, cell-based.
The nature of series [11]: Cytotoxicity against human CMEC/D3 cells assessed as effect on mitochondrial membrane potential at 100 nM by TMRM fluorescent probe-based fluorimetric analysis. The conditions noted are these: hcmec/d3, 0.1 µM. The series is classed as cell-based.
The nature of series [12]: Cytotoxicity against human CMEC/D3 cells assessed as effect on mitochondrial oxidant production at 100 nM by MitoSox Red probe-based fluorescence assay. Particulars: hcmec/d3, 0.1 µM. The series is classed as cell-based.
Series [13] relates to hCMEC/D3. As to the kind of experiment: Cytoprotective activity in human CMEC/D3 cells assessed as inhibition of rotenone-induced mitochondrial production of reactive oxygen species at 100 nM preincubated for 1 hr followed by rotenone induction by MitoSox Red probe-based fluorescence assay. The series is classed as functional, cell-based.
The test system of series [14] is hCMEC/D3. Kind of series: Cytoprotective activity in human CMEC/D3 cells assessed as inhibition of rotenone-mediated reduction of ATP level at 100 nM preincubated for 1 hr followed by rotenone induction measured after 18 hrs by firefly lantern luciferase reporter assay. The series is classed as functional, cell-based. Background: Reporter assays use an easily measured gene product as a stand-in for the process of interest.

The subject of series [15] is hCMEC/D3. As to the kind of experiment: Cytoprotective activity in human CMEC/D3 cells assessed as inhibition of SIN-1-induced oxidative stress-mediated toxicity by measuring cell viability at 100 nM preincubated for 1 hr followed by SIN-1 induction measured after 24 hrs by Alamar blue assay. The series is classed as functional, cell-based.
The subject of series [16] is hCMEC/D3. Kind of series: Cytoprotective activity in human CMEC/D3 cells assessed as inhibition of H2O2-induced oxidative stress-mediated toxicity by measuring cell viability at 100 nM preincubated for 1 hr followed by H2O2 induction measured after 24 hrs by Alamar blue assay. It counts as functional, cell-based.
Series [17] relates to hCMEC/D3. As to the kind of experiment: Cytoprotective activity in human CMEC/D3 cells assessed as inhibition of 4-HNE-induced oxidative stress-mediated toxicity by measuring cell viability at 100 nM preincubated for 1 hr followed by 4-HNE induction measured after 24 hrs by Alamar blue assay. The series is classed as functional, cell-based.
The subject of series [18] is hCMEC/D3. Kind of series: Cytoprotective activity in human CMEC/D3 cells assessed as inhibition of SIN-1-induced oxidative stress-mediated toxicity by measuring cell viability at 100 nM preincubated for 1 hr followed by SIN-1 induction measured after 24 hrs by Alamar blue assay in presence of 5-(4-hydroxyphenyl)-3H-1,2-dithiole-3-thione. It counts as functional, cell-based.

The test system of series [19] is hCMEC/D3. As to the kind of experiment: Cytoprotective activity in human CMEC/D3 cells assessed as inhibition of H2O2-induced oxidative stress-mediated toxicity by measuring cell viability at 100 nM preincubated for 1 hr followed by H2O2 induction measured after 24 hrs by Alamar blue assay in presence of 5-(4-hydroxyphenyl)-3H-1,2-dithiole-3-thione. It counts as functional, cell-based.

Series [20] has as its system hCMEC/D3. As to the kind of experiment: Cytoprotective activity in human CMEC/D3 cells assessed as inhibition of 4-HNE-induced oxidative stress-mediated toxicity by measuring cell viability at 100 nM preincubated for 1 hr followed by 4-HNE induction measured after 24 hrs by Alamar blue assay in presence of 5-(4-hydroxyphenyl)-3H-1,2-dithiole-3-thione. It counts as functional, cell-based.

`O=C(CCCCCCCCC[P+](c1ccccc1)(c1ccccc1)c1ccccc1)Oc1ccc(-c2cc(=S)ss2)cc1.[Br-]`: the Activity result is “Dose-dependent effect” in [1], “Non-toxic” in [4], “Non-toxic” in [11] and “Non-toxic” in [12]. Further, the result in [2] and in series [3] was Active. Further, the inhibition entry in series [5], in series [6], in [7], in series [8], in [9] and in [10] was “Active” in each case. Moreover, the inhibition result in series [13] and in [14] was “Active” throughout.
As to `Oc1ccc(-c2cc(=S)ss2)cc1`, the inhibition entry in series [15], in [16] and in series [17] was “inactive” in each case.
Regarding `O=C(O)CCCCCCCCC[P+](c1ccccc1)(c1ccccc1)c1ccccc1`, the inhibition entry in [15], in series [16], in series [17], in series [18], in series [19] and in series [20] was “inactive” throughout.
